Source: patent publication US20110263631A1, “COMBINATION OF A SEROTONIN AND NOREPINEPHRINE REUPTAKE INHIBITOR AND AN OPIOID AGONIST FOR THE TREATMENT OF PAIN” (priority 2010, published 2011)

Tests used:
rat formalin pain model = assay: Rat formalin model of pain (inhibition of formalin-induced flinching); type: in vivo; conditions: for SNRI Dose Response ED50 (Confidence Interval): phase 2A, SNRI IP alone or plus 1 mg/kg morphine SC, 95% CI
[1] = Pharmacokinetic studies: plasma concentrations alone or in combination; conditions: rat; for Plasma concentrations of SNRI alone versus in combination with morphine: compound 1 3 mg/kg, duloxetine 10 mg/kg or atomoxetine 10 mg/kg IP, morphine 3 mg/kg SC or vehicle SC
hSERT = hSERT (Homo sapiens, UniProt P31645); assay: 3H-5-HT neurotransmitter uptake assay in HEK-293 cells expressing hSERT
hSERT, sequence (P31645 whole entry): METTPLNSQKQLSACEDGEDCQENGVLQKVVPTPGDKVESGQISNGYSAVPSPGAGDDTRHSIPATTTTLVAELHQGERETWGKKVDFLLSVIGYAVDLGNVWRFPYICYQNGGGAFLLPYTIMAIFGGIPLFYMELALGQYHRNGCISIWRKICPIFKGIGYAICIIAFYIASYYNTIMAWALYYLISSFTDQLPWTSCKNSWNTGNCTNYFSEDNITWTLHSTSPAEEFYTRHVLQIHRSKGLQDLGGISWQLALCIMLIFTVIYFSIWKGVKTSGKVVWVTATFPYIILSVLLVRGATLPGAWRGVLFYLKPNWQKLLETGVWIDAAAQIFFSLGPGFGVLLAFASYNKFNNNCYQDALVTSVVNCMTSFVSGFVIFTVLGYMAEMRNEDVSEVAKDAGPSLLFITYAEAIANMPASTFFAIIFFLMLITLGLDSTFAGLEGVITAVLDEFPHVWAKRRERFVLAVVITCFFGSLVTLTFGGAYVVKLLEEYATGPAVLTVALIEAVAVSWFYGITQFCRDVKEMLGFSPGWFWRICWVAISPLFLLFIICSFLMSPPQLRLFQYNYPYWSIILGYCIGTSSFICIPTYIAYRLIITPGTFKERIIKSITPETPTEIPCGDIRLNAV
Protocol: (§1) Neurotransmitter uptake assays were used to measure inhibition of ^3H-serotonin (^3H-5-HT) and ^3H-norepinephrine (^3H-NE) uptake into cells expressing the respective human recombinant transporter (hSERT or hNET) and into rat brain synaptosomal preparations in order to determine the pIC50 values of test compounds at the human and rat monoamine transporters, respectively.
HEK-293 derived cell lines stably-transfected with hSERT or, hNET, respectively, were grown in Dulbecco's modified Eagles Medium (DMEM) supplemented with 10% dialyzed FBS (for hSERT) or FBS (for hNET), 100 μg/ml penicillin, 100 μg/ml streptomycin, 2 mM L-glutamine and 250 μg/ml of the aminoglycoside antibiotic G418 in a 5% CO2 humidified incubator at 37° C. […]
(§2) Following a 10 minute incubation for cells (6 minute incubation for rat synaptosomes) at 37° C. with radioligand, the reactions were terminated by rapid filtration over a 96-well UniFilter GF/B plate, pretreated with 1% BSA, and washed 6 times with 650 μl wash buffer (ice cold PBS). Plates were dried, 35-45 μl of MicroScint™-20 (Perkin Elmer) added and incorporated radioactivity quantitated via liquid scintillation counting. Inhibition curves were analyzed using the GraphPad Prism Software package (GraphPad Software, Inc., San Diego, Calif.).

hNET = hNET (Homo sapiens, UniProt P23975); assay: 3H-NE neurotransmitter uptake assay in HEK-293 cells expressing hNET
hNET, sequence (P23975 whole entry): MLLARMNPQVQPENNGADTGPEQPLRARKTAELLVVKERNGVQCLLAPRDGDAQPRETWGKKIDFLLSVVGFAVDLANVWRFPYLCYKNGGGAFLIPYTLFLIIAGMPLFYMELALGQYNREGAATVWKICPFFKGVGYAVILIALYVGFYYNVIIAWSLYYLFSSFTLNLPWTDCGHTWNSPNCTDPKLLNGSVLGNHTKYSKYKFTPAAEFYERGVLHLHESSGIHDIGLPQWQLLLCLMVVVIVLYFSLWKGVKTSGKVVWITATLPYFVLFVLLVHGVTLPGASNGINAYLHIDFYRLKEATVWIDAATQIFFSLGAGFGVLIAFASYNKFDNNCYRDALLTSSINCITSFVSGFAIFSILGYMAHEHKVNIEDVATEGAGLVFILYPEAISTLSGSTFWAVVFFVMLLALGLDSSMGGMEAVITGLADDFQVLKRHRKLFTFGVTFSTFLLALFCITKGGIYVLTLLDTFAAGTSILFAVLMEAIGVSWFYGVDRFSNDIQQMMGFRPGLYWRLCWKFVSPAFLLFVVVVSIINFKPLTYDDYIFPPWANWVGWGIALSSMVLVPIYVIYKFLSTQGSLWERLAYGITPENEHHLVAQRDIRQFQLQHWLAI
Protocol: as §1
HEK-293 derived cell lines stably-transfected with hSERT or, hNET, respectively, were grown in Dulbecco's modified Eagles Medium (DMEM) supplemented with 10% dialyzed FBS (for hSERT) or FBS (for hNET), 100 μg/ml penicillin, 100 μg/ml streptomycin, 2 mM L-glutamine and 250 μg/ml of the aminoglycoside antibiotic G418 in a 5% CO2 humidified incubator at 37° C. When cultures reached 50-80% confluence, the cells were washed thoroughly in PBS (without Ca^2+ and Mg^2+) and lifted with 5 mM EDTA in PBS. Cells were harvested by centrifugation at 1100 rpm for 5 minutes, the supernatant was discarded, and the cell pellet resuspended, by gentle trituration, in room temperature Krebs-Ringer bicarbonate buffer containing HEPES (10 mM), CaCl2 (2.2 mM), ascorbic acid (200 μM) and pargyline (200 μM), pH 7.4. The final concentration of cells in the cell suspension was 7.5×10^4 cells/ml for hSERT and 12.5×10^4 cells/ml for hNET. […]
as §2

SERT = SERT (Rattus norvegicus, UniProt P31652); assay: 3H-5-HT uptake assay in rat brain synaptosomal preparations
SERT, sequence (P31652 whole entry): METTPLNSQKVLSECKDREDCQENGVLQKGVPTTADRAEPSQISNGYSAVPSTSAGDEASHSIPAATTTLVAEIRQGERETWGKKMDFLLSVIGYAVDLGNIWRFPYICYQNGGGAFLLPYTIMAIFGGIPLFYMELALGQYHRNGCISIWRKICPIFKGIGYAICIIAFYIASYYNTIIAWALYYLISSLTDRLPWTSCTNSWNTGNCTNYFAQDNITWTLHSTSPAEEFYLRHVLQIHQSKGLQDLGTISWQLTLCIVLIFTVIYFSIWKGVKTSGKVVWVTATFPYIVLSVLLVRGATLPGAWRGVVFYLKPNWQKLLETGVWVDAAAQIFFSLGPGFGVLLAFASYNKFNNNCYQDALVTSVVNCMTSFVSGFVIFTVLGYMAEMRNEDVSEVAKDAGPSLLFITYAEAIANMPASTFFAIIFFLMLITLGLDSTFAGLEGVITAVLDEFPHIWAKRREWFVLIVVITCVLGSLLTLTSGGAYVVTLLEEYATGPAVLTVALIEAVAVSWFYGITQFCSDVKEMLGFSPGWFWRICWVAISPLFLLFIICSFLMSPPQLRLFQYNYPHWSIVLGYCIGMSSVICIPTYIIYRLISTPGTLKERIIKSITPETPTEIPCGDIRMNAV
Description: as §1
Rats were euthanized by decapitation. Rat freshly dissected cortical tissue pieces were suspended in ice-cold Sucrose Buffer at a ratio of 100 mg wet weight of tissue per 1 mL of buffer. The tissues were homogenized using a pre-chilled glass dounce homogenizer for 20 strokes. The homogenate was centrifuged at 1,000×g (10 min at 4° C.). […] Synaptosomes were resuspended in Sucrose Buffer and the protein concentration was determined by the method of Bradford (Bradford (1976) Analytical Biochemistry 72:24854) and used immediately following preparation. […]
Following a 10 minute incubation for cells (6 minute incubation for rat synaptosomes) at 37° C. with radioligand, the reactions were terminated by rapid filtration over a 96-well UniFilter GF/B plate, pretreated with 1% BSA, and washed 6 times with 650 μl wash buffer (ice cold PBS). Plates were dried, 35-45 μl of MicroScint™-20 (Perkin Elmer) added and incorporated radioactivity quantitated via liquid scintillation counting. […]

rat SERT = target: T1, rat SERT (Rattus norvegicus, UniProt P31652); assay: Ex vivo SERT transporter occupancy ([3H]-citalopram association); type: in vivo; conditions: 1.25 h post dose, ± Standard Error; for receptor occupancy at 3 mg/kg: 3 mg/kg IP; for receptor occupancy at 10 mg/kg: 10 mg/kg IP
T1 construct: from tissue; host or cells: rat cortex or lumbar spinal cord homogenate from dosed animals
T1 sequence (P31652 whole entry): as above
Protocol: (§3) To monitor SERT and NET transporter occupancy, an ex vivo occupancy assay was used in which the initial rate of association of a SERT- or NET-selective radioligand, respectively, to the tissue homogenates was monitored. The initial rate of association of radioligand is directly proportional to the level of free (unoccupied) transporter.
Rats were euthanized 1.25 hours post compound administration by decapitation. Following decapitation, the brain was removed and placed on to a clean metal block, on ice. A parasagittal cut was made through the entire brain, around 4 mm lateral to the midline. The lateral cortex pieces were discarded. A midsagittal cut was made through the entire length of the brain. The block of brain corresponding to each hemisphere was then placed on to the respective lateral cut surface, such that the midsagittal surface was uppermost. A single cut was made parallel to, and about 1 mm dorsal to, the corpus callosum to remove a cortex piece, which was frozen on dry ice prior to storage at −80° C. The spinal cord was harvested by hydraulic extrusion with PBS. An 18 gauge needle was inserted into the spinal column near the iliac crest and the buffer injected into the spinal column with the resultant extrusion of the spinal cord, intact. The lumbar spinal cord (approximately 1-1.5 cm in length) was rapidly dissected and frozen on dry ice prior to storage at −80° C.
The frozen tissue pieces were weighed and kept on dry ice prior to homogenization. […]
(§4) Total and non-specific binding was determined at a single concentration of radioligand (in parentheses): [^3H]-citalopram (3 nM) and [^3H]-nisoxetine (5 nM) at SERT and NET, respectively. […] Filter plates were washed six times with wash buffer (ice-cold 50 mM Tris-HCl, 0.9% NaCl, at 4° C.) to remove unbound radioactivity. Plates were dried, 35-45 μL Microscint-20 liquid scintillation fluid (Packard BioScience Co., Meriden, Conn.) was added to each well, and plates were counted in a Packard Topcount liquid scintillation counter (Packard BioScience Co., Meriden, Conn.).
Specific binding was calculated using total (in the absence of test compound) and non-specific (determined as described above) binding from the same plate as follows: specific binding=value−non-specific binding. Data then were analyzed by linear regression analysis with the GraphPad Prism Software package (GraphPad Software, Inc., San Diego, Calif.). The initial rates of association of [^3H]-citalopram or [^3H]-nisoxetine, equal to the slope of the straight line, were determined by fitting data points, specific binding (cpm) versus time (min). The average of the initial rates of [^3H]-citalopram or [^3H]-nisoxetine association from vehicle-dosed animals was calculated. […]

rat NET = target: T2, rat NET (Rattus norvegicus, UniProt Q63380); assay: Ex vivo NET transporter occupancy ([3H]-nisoxetine association); type: in vivo; conditions: lumbar spinal cord, 1.25 h post dose, ± Standard Error
T2 construct: from tissue; host or cells: rat cortex or lumbar spinal cord homogenate from dosed animals
T2 sequence (Q63380 1-617): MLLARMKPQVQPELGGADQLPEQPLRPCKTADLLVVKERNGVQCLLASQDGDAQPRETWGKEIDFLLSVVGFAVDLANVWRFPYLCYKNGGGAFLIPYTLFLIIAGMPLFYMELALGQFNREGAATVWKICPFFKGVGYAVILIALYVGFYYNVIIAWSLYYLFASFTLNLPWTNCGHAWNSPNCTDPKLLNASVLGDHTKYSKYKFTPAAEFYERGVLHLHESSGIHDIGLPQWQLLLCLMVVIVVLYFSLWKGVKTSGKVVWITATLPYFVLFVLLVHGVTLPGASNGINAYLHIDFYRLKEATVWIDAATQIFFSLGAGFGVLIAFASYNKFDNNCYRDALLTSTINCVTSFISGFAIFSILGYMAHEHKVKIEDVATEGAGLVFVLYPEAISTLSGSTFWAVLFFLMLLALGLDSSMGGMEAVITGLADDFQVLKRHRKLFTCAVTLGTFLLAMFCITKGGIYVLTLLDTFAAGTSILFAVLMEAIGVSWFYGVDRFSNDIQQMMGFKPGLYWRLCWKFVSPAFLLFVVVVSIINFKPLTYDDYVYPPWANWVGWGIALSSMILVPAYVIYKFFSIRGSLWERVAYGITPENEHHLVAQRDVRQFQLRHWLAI
Description: as §3
The spinal cord was harvested by hydraulic extrusion with PBS. An 18 gauge needle was inserted into the spinal column near the iliac crest and the buffer injected into the spinal column with the resultant extrusion of the spinal cord, intact. […]
as §4
Specific binding was calculated using total (in the absence of test compound) and non-specific (determined as described above) binding from the same plate as follows: specific binding=value−non-specific binding. […]

NET [2] = assay: 3H-NE uptake assay in rat brain synaptosomal preparations
Description: as §1
(§5) Rats were euthanized by decapitation. Rat freshly dissected cortical tissue pieces were suspended in ice-cold Sucrose Buffer at a ratio of 100 mg wet weight of tissue per 1 mL of buffer. The tissues were homogenized using a pre-chilled glass dounce homogenizer for 20 strokes. The homogenate was centrifuged at 1,000×g (10 min at 4° C.). The pellet was discarded and the resulting supernatant was centrifuged at 10,000×g (20 min at 4° C.) to obtain the crude synaptosomal pellet. Synaptosomes were resuspended in Sucrose Buffer and the protein concentration was determined by the method of Bradford (Bradford (1976) Analytical Biochemistry 72:24854) and used immediately following preparation.
(§6) Neurotransmitter uptake assays were performed in a 96-well assay plate in a total volume of 400 μg containing 1.5×10^4 and 2.5×10^4 cells, for SERT and NET, respectively or 10 μg cortical synaptosomal protein in assay buffer (Krebs-Ringer bicarbonate buffer containing HEPES (10 mM), CaCl2 (2.2 mM), ascorbic acid (200 μM) and pargyline (200 μM), pH 7.4). […]
as §2

NET [3] = target: NET (Rattus norvegicus, UniProt Q63380); assay: as above; conditions: Rat brain synaptosomes, 3H-NE uptake
NET (Rattus norvegicus, UniProt Q63380), sequence (Q63380 1-617): as above
Description: as §1, §5, §6, §2

Q: Which results are given for CNCC[C@H](Oc1cccc2ccccc12)c1cccs1 [Duloxetine, duloxetine, reference compound]?
A: morphine sparing effect (rat formalin pain model; duloxetine 5 mg/kg IP co-administered with ondansetron 3 mg/kg IP, with morphine 1 mg/kg SC): a morphine sparing effect was observed; inhibition of flinching behavior (in words) (rat formalin pain model; single administration of 10 mg/kg duloxetine): significant inhibition of flinching behavior

Q: With COc1ccc2c3c1O[C@H]1C(=O)CC[C@@]4(O)[C@@H](C2)N(C)CC[C@]314 [Oxycodone, oxycodone] as the molecule, how does the “Plasma concentrations alone versus combination of compound 1 and oxycodone” value ([1]; compound 1 10 mg/kg IP, oxycodone 3 mg/kg SC) read?
A: equivalent

Q: Which “Plasma concentrations of SNRI alone versus in combination with morphine” value [1] does the source give for Fc1cc(F)c(OCc2ccccc2C2CCNCC2)c(F)c1 [Compound 1, 4-[2-(2,4,6-trifluoro-phenoxymethyl)-phenyl]-piperidine] here?
A: equivalent

Q: What about the inhibition at 10 mg/kg (rat formalin pain model; Rattus norvegicus, single administration of 10 mg/kg compound 1 IP, mean±SEM, read-out: inhibition of flinching behavior) of the same molecule?
A: 20 ± 7%

Q: What about the “pain behavior during phase 1” value (rat formalin pain model; first 10 minutes post formalin injection (acute pain processing)) of the same molecule?
A: Decreases in pain behavior were also observed

Q: What about the “SNRI Dose Response ED50 (Confidence Interval)” value (rat formalin pain model; rat formalin model) of the same molecule?
A: 20.0 (14.0-28.4) mg/kg

Q: What about the “interaction with morphine (shift of morphine dose response curve)” value (rat formalin pain model; rat formalin model, 3 mg/kg IP compound 1 plus morphine SC, 3 mg/kg) of the same molecule?
A: failed to significantly shift the morphine dose response curve

Q: What about the “interaction with oxycodone (ED50 shift, isobolographic analysis)” value (rat formalin pain model; rat formalin model, 10 mg/kg IP compound 1 plus oxycodone SC) of the same molecule?
A: synergistic interaction

Q: And the “interaction with morphine (ED50 shift, isobolographic analysis)” value (rat formalin pain model; rat formalin model, compound 1 or atomoxetine 10 mg/kg IP, duloxetine 3, 5 or 10 mg/kg IP, morphine SC)?
A: synergistic interaction

Q: And the IC50 (hSERT)?
A: 10 nM

Q: And the IC50 (hNET)?
A: 2.51 nM

Q: And the NET selectivity (hNET)?
A: 4

Q: And the “selectivity for NET (ratio of SERT to NET IC50 values)” value (hNET; human recombinant cell-based assay)?
A: about 4 fold

Q: And the IC50 (SERT)?
A: 12.6 nM

Q: And the receptor occupancy at 3 mg/kg (rat SERT; lumbar spinal cord)?
A: 23 ± 14%

Q: And the receptor occupancy at 10 mg/kg (rat SERT; lumbar spinal cord)?
A: 46 ± 20%

Q: What about the receptor occupancy at 3 mg/kg (rat NET; 3 mg/kg IP) of the same molecule?
A: 77 ± 15%

Q: What about the receptor occupancy at 10 mg/kg (rat NET; 10 mg/kg IP) of the same molecule?
A: 81 ± 6%

Q: And the NET selectivity (NET [2]; Rat brain synaptosomes, 10**(NET pIC50 − SERT pIC50))?
A: 10

Q: And the “selectivity for NET (ratio of SERT to NET IC50 values)” value (NET [2]; rat brain synaptosomal preparations)?
A: about 10 fold

Q: And the “NET pIC50” value (NET [3])?
A: 8.9

Q: For CNCC[C@@H](Oc1ccccc1C)c1ccccc1 [Atomoxetine, atomoxetine, reference compound], which “Plasma concentrations of SNRI alone versus in combination with morphine” value [1] is on record?
A: equivalent

Q: And the “SNRI Dose Response ED50 (Confidence Interval)” value (rat formalin pain model; rat formalin model)?
A: 24.4 (14.5-41.1) (n = 6-12) mg/kg

Q: What about the receptor occupancy at 3 mg/kg (rat SERT; cortex) of the same molecule?
A: 35 ± 9%

Q: What about the receptor occupancy at 10 mg/kg (rat SERT; cortex) of the same molecule?
A: 64 ± 5%

Q: For CN1CC[C@]23c4c5ccc(O)c4O[C@H]2[C@@H](O)C=C[C@H]3[C@H]1C5 [Morphine, morphine, reference compound], which inhibition at 1 mg/kg (rat formalin pain model; Rattus norvegicus, sc, read-out: inhibition of flinching behavior) is on record?
A: 13 ± 11%
